Data published in the supplement of paper PMC10307832.

Key:
Test in all cases: relative viability (nuclei count vs DMSO), 5 days (fraction); higher = more cells survive
[1] = compound: CC(C)C[C@H](NC(=O)[C@H](CCc1ccccc1)NC(=O)CN1CCOCC1)C(=O)N[C@@H](Cc1ccccc1)C(=O)N[C@@H](CC(C)C)C(=O)[C@@]1(C)CO1 [Carfilzomib] + O=C(CCCCCCC(=O)Nc1ccccc1)NO [Vorinostat] (partner 1 µM)
How it was run: (§1)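 Nuclei were stained with Hoechst during a one-step fixation (final 0.05% Triton X-100, 1% formaldehyde, 1 ug/ml Hoechst) carried out 5 days after dosing, then counted on 4× images. The cells, lung cancer lines in 1536-well plates, had been dosed by pin tool the day after seeding with one drug alone or a fixed anchor-drug dose plus five library-drug doses (not always all listed) in √10 steps. Relative viability is the nuclei count in treated wells divided by that in vehicle wells, and each value is the median of duplicate plates.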

[2] = compound: O=C(c1cc(Cc2n[nH]c(=O)c3ccccc23)ccc1F)N1CCN(C(=O)C2CC2)CC1 [Olaparib] + C[C@@H](Oc1cc(-c2cnn(C3CCNCC3)c2)cnc1N)c1c(Cl)ccc(F)c1Cl [Crizotinib] (partner 1 µM)
How it was run: as §1

[3] = compound: C[C@@H](Oc1cc(-c2cnn(C3CCNCC3)c2)cnc1N)c1c(Cl)ccc(F)c1Cl [Crizotinib] + NC(=O)Nc1cc(-c2cccc(F)c2)sc1C(=O)N[C@H]1CCCNC1 [AZD7762] (partner 0.2 µM)
How it was run: as §1

[4] = compound: C[C@@H](Oc1cc(-c2cnn(C3CCNCC3)c2)cnc1N)c1c(Cl)ccc(F)c1Cl [Crizotinib] + CS(=O)(=O)CCNCc1ccc(-c2ccc3ncnc(Nc4ccc(OCc5cccc(F)c5)c(Cl)c4)c3c2)o1 [Lapatinib] (partner 2 µM)
How it was run: as §1

Row | Cell Line | relative viability ([1]; first compound 0.001 µM) | relative viability ([1]; first compound 0.003162 µM) | relative viability ([1]; first compound 0.01 µM) | relative viability ([1]; first compound 0.03162 µM) | relative viability ([1]; first compound 0.1 µM) | relative viability ([2]; first compound 0.08 µM) | relative viability ([2]; first compound 0.253 µM) | relative viability ([2]; first compound 2.53 µM) | relative viability ([2]; first compound 8 µM) | relative viability ([3]; first compound 0.01 µM) | relative viability ([3]; first compound 0.03162 µM) | relative viability ([3]; first compound 0.1 µM) | relative viability ([3]; first compound 0.3162 µM) | relative viability ([3]; first compound 1 µM) | relative viability ([4]; first compound 0.01 µM) | relative viability ([4]; first compound 0.03162 µM) | relative viability ([4]; first compound 0.1 µM) | relative viability ([4]; first compound 0.3162 µM) | relative viability ([4]; first compound 1 µM)
1 | LCLC-103H | 0.809 | 0.941 | 0.772 | 0.497 | 0.218 | 1.15 | 1.04 | 1.04 | 0.985 | 0.798 | 0.78 | 0.877 | 0.839 | 0.804 | – | – | – | – | –
2 | NCI-H441 | 0.777 | 0.683 | 0.546 | 0.129 | 0.141 | 0.677 | 0.634 | 0.733 | 0.719 | 0.998 | 1.03 | 1.12 | 1.09 | 1.21 | – | – | – | – | –
3 | NCI-H520 | 0.684 | 0.605 | 0.192 | 0.156 | 0.148 | 0.739 | 0.695 | 0.781 | 0.477 | – | – | – | – | – | 0.75 | 0.86 | 0.827 | 0.391 | 0.927
4 | NCI-H522 | 0.888 | 1.01 | 0.841 | 0.426 | 0.412 | – | – | – | – | 0.852 | 0.792 | 0.752 | 0.908 | 0.846 | – | – | – | – | –
5 | NCI-H661 | 0.821 | 0.861 | 0.808 | 0.553 | 0.215 | 1.06 | 0.969 | 0.944 | 0.849 | – | – | – | – | – | 0.551 | 0.461 | 0.43 | 0.469 | 0.539
6 | NCI-H1299 | – | – | – | – | – | 1.06 | 0.903 | 0.986 | 0.95 | – | – | – | – | – | 0.966 | 0.942 | 0.896 | 0.996 | 0.955
7 | NCI-H1395 | – | 0.791 | 0.469 | 0.306 | 0.316 | – | – | – | – | 0.381 | 0.372 | 0.429 | 0.43 | 0.397 | 0.971 | 1.14 | 1 | 0.922 | 0.956
8 | NCI-H1563 | – | – | – | – | – | 0.867 | 0.813 | 0.896 | 0.826 | – | – | – | – | – | 0.88 | 0.962 | 0.936 | 0.753 | 0.789
9 | NCI-H1648 | 0.64 | 0.613 | 0.954 | 0.28 | 0.212 | – | – | – | – | – | 0.513 | 0.684 | 0.467 | 0.723 | – | – | – | – | –
10 | NCI-H1650 | 0.65 | 0.475 | 0.19 | 0.152 | 0.127 | 1.13 | 0.864 | 1.15 | 0.965 | – | – | – | – | – | 0.699 | 0.819 | 0.828 | 0.363 | 0.799
11 | NCI-H1703 | – | – | – | – | – | 1.07 | 0.734 | 0.903 | 0.522 | 0.157 | 0.172 | 0.126 | 0.116 | 0.125 | 1.23 | 1.18 | 1.07 | 1.17 | 1.02
12 | NCI-H1792 | – | – | – | – | – | 1.03 | 0.82 | 0.843 | 0.794 | 0.634 | 0.881 | 0.626 | – | 0.63 | 0.827 | 0.918 | 0.958 | 0.78 | 0.842
13 | NCI-H2009 | 0.717 | 0.821 | 0.757 | 0.179 | 0.0653 | 1.19 | 0.999 | 1.06 | 1.01 | – | – | – | – | – | 0.845 | 0.984 | 0.956 | 0.812 | 0.93
14 | NCI-H2023 | 0.471 | 0.657 | 0.619 | 0.224 | 0.0546 | 0.789 | 0.661 | 0.658 | 0.574 | – | – | – | – | – | 0.864 | 0.884 | 0.71 | 0.372 | 0.465
15 | NCI-H2228 | 0.728 | 0.657 | 0.468 | 0.101 | 0.0952 | 0.603 | 0.437 | 0.473 | 0.362 | – | – | – | – | – | 0.814 | 0.827 | 1.06 | 0.488 | 0.412
16 | NCI-H2342 | 0.731 | 0.675 | 0.876 | 0.733 | 0.421 | – | – | – | – | 0.465 | 0.504 | 0.483 | 0.441 | 0.575 | – | – | – | – | –
17 | SK-LU-1 | 0.772 | 0.864 | 0.533 | 0.219 | 0.198 | 1.15 | 0.774 | 0.801 | 0.621 | – | – | – | – | – | 0.833 | 0.953 | 0.859 | 0.889 | –
18 | SK-MES-1 | 1.11 | 1.12 | 1.15 | 0.579 | 0.156 | 0.982 | 0.89 | 0.885 | 0.668 | – | – | – | – | – | 0.415 | 0.414 | 0.51 | 0.43 | 0.541
19 | SW 900 | – | 0.469 | 0.198 | 0.168 | 0.188 | – | – | – | – | 0.54 | 0.627 | 0.616 | 0.663 | 0.617 | – | – | – | – | –
20 | SW 1573 | 0.648 | 1.31 | 0.243 | 0.0435 | 0.041 | 0.788 | 0.768 | 0.601 | 0.57 | – | – | – | – | – | 1.13 | 1.03 | 0.956 | 1.07 | 1.08
21 | UMC-11 | 0.413 | 0.395 | 0.394 | 0.308 | 0.115 | 0.757 | 0.502 | 0.492 | 0.265 | – | – | – | – | – | – | 0.975 | 1.02 | – | 0.668
